The values below are quoted from earlier work in patent US7825150B2, “Compositions and methods for treating immunological and inflammatory diseases and disorders” (Lexicon Pharmaceuticals, Inc., priority 2007, dated 2010).

Where two headings read alike, the source gives them in different places.

Series [1] concerns adjuvant-induced arthritis (AA) model. The following applies: therapeutic setting, established disease state; majority of published studies.
For the next series, the target named is T1, S1P lyase (Mus musculus, UniProt Q8R0X7).
T1 construct: host or cells: mice, in vivo (endogenous enzyme)
T1 sequence (Q8R0X7 1-568): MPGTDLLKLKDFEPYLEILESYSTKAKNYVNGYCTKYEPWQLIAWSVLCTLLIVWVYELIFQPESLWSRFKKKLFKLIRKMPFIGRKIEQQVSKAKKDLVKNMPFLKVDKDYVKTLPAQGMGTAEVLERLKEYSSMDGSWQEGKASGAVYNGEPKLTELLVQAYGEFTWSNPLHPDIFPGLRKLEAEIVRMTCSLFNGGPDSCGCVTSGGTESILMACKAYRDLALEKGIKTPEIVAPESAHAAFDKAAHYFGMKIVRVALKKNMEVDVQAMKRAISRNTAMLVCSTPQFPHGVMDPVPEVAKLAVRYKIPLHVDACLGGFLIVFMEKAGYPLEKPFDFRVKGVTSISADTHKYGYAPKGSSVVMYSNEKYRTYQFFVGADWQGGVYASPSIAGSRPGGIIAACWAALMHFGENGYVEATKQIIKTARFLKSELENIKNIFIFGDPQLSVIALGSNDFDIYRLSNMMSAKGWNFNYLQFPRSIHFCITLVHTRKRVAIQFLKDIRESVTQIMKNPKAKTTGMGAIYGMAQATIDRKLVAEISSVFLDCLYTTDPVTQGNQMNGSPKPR
Conditions: administered to mice; Schwab et al. 2005.

In series [2] the test system is lymphocytes. Conditions: administration to mice.
The conditions of series [3]: humans.
For series [4], the system named is lymphocytes. Conditions: administration to rats.

On to `CN(Cc1cnc2nc(N)nc(N)c2n1)c1ccc(C(=O)N[C@@H](CCC(=O)O)C(=O)O)cc1` [MTX, methotrexate], for which the “effectiveness of MTX treatment alone in this model” value in series [1] was “not effective”.
Consider `CC(=O)c1nc(C(O)C(O)C(O)CO)c[nH]1` (stereo not shown) [THI, 2-acetyl-4-tetrahydroxybutylimidazole], for which the S1P lyase activity result at S1P lyase is given as “inhibits S1P lyase activity”. In the series with lymphocytes [2], the “accumulation of mature T cells in the thymus” value is “causes the accumulation of mature T cells in the thymus” and the lymphopenia entry was “induces lymphopenia”. The immunological effects result in series [3] is given as “no immunological effects”. Moreover, in the series on lymphocytes [4], the “accumulation of mature T cells in the thymus” value is given as “causes the accumulation of mature T cells in the thymus” and the lymphopenia result is “induces lymphopenia”.
